From patent EP0643693B1, “REVERSAL OF MULTI-DRUG RESISTANCE BY TRIPHENYL-PIPERIDINE DERIVATIVES” (MERRELL PHARMACEUTICALS INC., priority 1992, dated 1993)
Counter-ions that a name gives are not always drawn.

What was measured:
[1] = tested on: multidrug resistant human epidermoid carcinoma (KBV1) cells; assay: Growth inhibition of vinblastine-resistant KBV1 cells (reversal of multidrug resistance); assay type: cell-based
[2] = tested on: multidrug resistant human epidermoid carcinoma (KBV1) cells; assay: as above; assay type: cell-based; remark: listed apart in the source
Description: The ability of compounds of this invention to reverse multi drug resistance can be determined using standard test procedures. The ability of the test compounds to inhibit the growth of multidrug resistant human epidermoid carcinoma (KBV1) cells in the presence of both Vinblastine and the compound was determined. […]

Row | SMILES | inhibition at 0.06 µM ([1]; Homo sapiens, KB-V1, compound alone, 0.06 µM) | inhibition at 0.12 µM ([1]; Homo sapiens, KB-V1, compound alone, 0.12 µM) | inhibition at 0.18 µM ([1]; Homo sapiens, KB-V1, compound alone, 0.18 µM) | inhibition at 0.23 µM ([1]; Homo sapiens, KB-V1, compound alone, 0.23 µM) | inhibition at 0.06 µM ([2]; KB-V1, compound 0.06 µM + VLB at 0.25 µg/ml) | inhibition at 0.12 µM ([2]; KB-V1, compound 0.12 µM + VLB at 0.25 µg/ml) | inhibition at 0.18 µM ([2]; KB-V1, compound 0.18 µM + VLB at 0.25 µg/ml) | inhibition at 0.23 µM ([2]; KB-V1, compound 0.23 µM + VLB at 0.25 µg/ml) | inhibition at 0.25 µg/mL ([1]; Homo sapiens, KB-V1, VLB at 0.25 µg/ml alone, read-out: growthinhibition) | growth inhibition ([1]; Vinblastine (0.25 µg/ml) alone)
1 | COc1ccc(CCN2CCCCC2CC(c2ccccc2)c2ccccc2)cc1OC (stereo not shown) [1-(3,4-Dimethoxyphenethyl)-2-(2,2-diphenylethyl)piperidine Maleate] | 1% | 0% | 8.1% | 12.2% | 30.4% | 60% | 91.6% | 94.2% |  | 
2 | CC[C@]1(O)C[C@@H]2CN(CCc3c([nH]c4ccccc34)[C@@](C(=O)OC)(c3cc4c(cc3OC)N(C)[C@H]3[C@@](O)(C(=O)OC)[C@H](OC(C)=O)[C@]5(CC)C=CCN6CC[C@]43[C@@H]65)C2)C1 [Vinblastine, reference compound] |  |  |  |  |  |  |  |  | 0 to 10% | 0 - 10%
